# From BindingDB's records for doi:10.1016/S0960-894X(01)80278-X (n/a, 1994)
# pIC50: −log10 of the molar value. Starred links: 1 amine or outer side, 2 acyl side, 3 side chain; linkers in the order of their positions; H or OH if unused. Non-standard residues stand in square brackets, D forms with d. Residues, ends and D or L forms follow the SMILES beside them. *: point of attachment. X2 = C=CCN([C@@H](C)C(=O)[*:2])[*:1]; X1 = O=C(CN(CC(Br)CBr)[*:1])[*:2]; X3 = O=C(CN(CC(Cl)CCl)[*:1])[*:2]; NAllylGly = C=CCNCC(=O)O; Boc = CC(C)(C)OC(=O)*
# Assay: Antiviral activity against HIV-1 in CEM cells
row,Structure (SMILES),pIC50
1,CC[C@H](C)[C@H](NC(=O)CN(CC(Cl)CCl)C(=O)[C@H](Cc1ccccc1)NC(=O)OC(C)(C)C)C(=O)N[C@H](C(=O)OC)C(C)C (stereo not given in full),< 4.30
2,C=CCN(C(=O)[C@H](Cc1ccccc1)NC(=O)[C@H](C)NC(=O)OC(C)(C)C)[C@@H](C)C(=O)N[C@H](C(=O)N[C@H](C(=O)OC)C(C)C)[C@@H](C)CC (Boc-AF[X2]IV-OMe),< 3.53
3,CC[C@H](C)[C@H](NC(=O)CN(CC(Br)CBr)C(=O)[C@H](Cc1ccccc1)NC(=O)OC(C)(C)C)C(=O)N[C@H](C(=O)OC)C(C)C (stereo not given in full),4.25
4,C=CCN(CC(=O)N[C@H](C(=O)N[C@H](C(=O)OC)C(C)C)[C@@H](C)CC)C(=O)[C@H](Cc1ccccc1)NC(=O)[C@H](C)N (H-AF[NAllylGly]IV-OMe),< 3.75
5,C=CCN(CC(=O)N[C@H](C(=O)N[C@H](C(=O)OC)C(C)C)[C@@H](C)CC)C(=O)[C@@H](N)Cc1ccccc1 (H-F[NAllylGly]IV-OMe),< 3.69
6,C=CCN(CC(=O)N[C@H](C(=O)N[C@H](C(=O)OC)C(C)C)[C@@H](C)CC)C(=O)[C@H](Cc1ccccc1)NC(=O)[C@H](C)NC(=O)OC(C)(C)C (Boc-AF[NAllylGly]IV-OMe),4.27
7,CC[C@H](C)[C@H](NC(=O)CN(CC(Cl)CCl)C(=O)[C@H](Cc1ccccc1)NC(=O)[C@H](C)NC(=O)OC(C)(C)C)C(=O)N[C@H](C(=O)OC)C(C)C (stereo not given in full) (Boc-AF[X3]IV-OMe),< 3.87
8,C=CCN(C(=O)[C@H](Cc1ccccc1)NC(=O)OC(C)(C)C)[C@@H](C)C(=O)N[C@H](C(=O)N[C@H](C(=O)OC)C(C)C)[C@@H](C)CC,< 4.78
9,C=CCN(C(=O)[C@H](Cc1ccccc1)NC(=O)[C@H](C)NC(=O)[C@H](C)NC(=O)[C@H](CO)NC(=O)OC(C)(C)C)[C@@H](C)C(=O)N[C@H](C(=O)N[C@H](C(=O)OC)C(C)C)[C@@H](C)CC (Boc-SAAF[X2]IV-OMe),< 3.92
10,CC[C@H](C)[C@H](NC(=O)CN(CC(Br)CBr)C(=O)[C@H](Cc1ccccc1)NC(=O)[C@H](C)NC(=O)OC(C)(C)C)C(=O)N[C@H](C(=O)OC)C(C)C (stereo not given in full) (Boc-AF[X1]IV-OMe),< 3.21
11,C=CCN(CC(=O)N[C@H](C(=O)N[C@H](C(=O)OC)C(C)C)[C@@H](C)CC)C(=O)[C@H](Cc1ccccc1)NC(=O)[C@H](C)NC(=O)[C@H](C)NC(=O)[C@H](CO)NC(=O)OC(C)(C)C (Boc-SAAF[NAllylGly]IV-OMe),< 4.61
12,C=CCN(CC(=O)N[C@H](C(=O)N[C@H](C(=O)OC)C(C)C)[C@@H](C)CC)C(=O)[C@H](Cc1ccccc1)NC(=O)OC(C)(C)C (Boc-F[NAllylGly]IV-OMe),< 3.77
13,C=CCNCC(=O)N[C@H](C(=O)N[C@H](C(=O)OC)C(C)C)[C@@H](C)CC,< 3.71
14,C=CCN(C(=O)[C@H](Cc1ccccc1)NC(=O)[C@H](C)NC(=O)[C@H](C)NC(=O)OC(C)(C)C)[C@@H](C)C(=O)N[C@H](C(=O)N[C@H](C(=O)OC)C(C)C)[C@@H](C)CC (Boc-AAF[X2]IV-OMe),5.41
15,C=CCN(CC(=O)N[C@H](C(=O)N[C@H](C(=O)OC)C(C)C)[C@@H](C)CC)C(=O)OC(C)(C)C,< 3.65
